Measured values as given in patent publication US20250228842A1, “USES OF A SOMATOSTATIN MODULATOR FOR THE TREATMENT OF CARCINOID SYNDROME” (Crinetics Pharmaceuticals, Inc., priority 2022, published 2025).
Values belong to the molecule of their own block, whether it stands above or below them.

Legend:
[1] = Phase 1 multi-cohort single dose study, plasma pharmacokinetics in healthy subjects; assay type: in vivo, human
Protocol: Cohort 1: To characterize performance of 10 mg tablets prepared by spray-dried dispersion (SDD) of Compound A-HCl salt.
Cohort 2: To evaluate the relative bioavailability of 10 mg SDD tablets compared to the Compound A-HCl hot melt granulation (HMG) formulation, 10 mg capsules. To determine the effect of timing of food administration on pharmacokinetics of low dose of the 10 mg SDD tablets.
Cohort 5: To determine the effect of the proton-pump inhibitor (PPI), lansoprazole, on the pharmacokinetics of a 60 mg dose of SDD tablets. To determine the effect of a low-fat meal on the pharmacokinetics of a 60 mg dose of SDD tablets.
The SDD tablets were evaluated. Up to twelve (12) healthy male and female subjects were enrolled in each cohort. Cohort 1 consisted of 4 periods: In Period 1, subjects were administered a proton-pump inhibitor (lansoprazole, 15 mg BID for 3 days (from Day-3), taken orally at least 30 min prior to a meal, once in the morning and once in the evening). On the fourth day (Day 1 of study), fasted subjects will take the last dose of lansoprazole (15 mg) 60 min prior to 20 mg Compound A (2×10 mg of the SDD tablets). In Period 2, fasted subjects were administered 20 mg Compound A (2×10 mg of the SDD tablets). In Period 3, fasted subjects were administered 20 mg Compound A (2×10 mg of the SDD tablets) with a high-fat, high-calorie meal. In Period 4, fasted subjects will take up to 80 mg Compound A (up to 8×10 mg of the SDD tablets). The actual dose was selected based on the pharmacokinetic data from Period 2.
For Period 1: In the evening before dosing (Day −1), subjects were administered their evening dose of 15 mg lansoprazole, provided an evening meal at least 30 min after administration of lansoprazole, and then were required to fast overnight (≥10 hr) on Day −1. […]
The cohort consisted of three periods. The PK of 60 mg paltusotine administered as 3×20 mg SDD tablets was assessed using the following criteria: effect of a low-fat meal on the PK of paltusotine (Period 1 and Period 3) and effect of the PPI lansoprazole on the PK of paltusotine (Period 2) as follows: […]

[2] = test system: insulin-like growth factor-1 (IGF-1) level; experiment: Phase 2 acromegaly trials (ACROBAT Edge / Evolve): IGF-1 level; assay type: in vivo, human
Protocol: (§1) An open label exploratory study designed to evaluate the safety, efficacy, and pharmacokinetics of Compound A (also known as paltusotine) in subjects with acromegaly that are treated with somatostatin analogue (SSA) based treatment regimens.
10 mg HMG capsule formulation. Multiple capsules were swallowed with water depending on dose specified for a given period/cohort.
Primary Outcome Measures: Change from baseline (mean of Screening values) in insulin-like growth factor-1 (IGF-1) level [Time Frame: 13 Weeks].
Primary Outcome Measures: Proportion of subjects who meet responder criteria (based on the mean of two consecutive insulin-like growth factor-1 [IGF-1] measurements ≤upper limit of normal [ULN]) (Time Frame: 13 Weeks).
(§2) Secondary Outcome Measures: 1) Change in IGF-1 levels [Time Frame: From Week 10 to Week 13]. 2) Change in growth hormone (GH) levels [Time Frame: From Week 8 to Week 13]. 3) Change in patient assessed symptoms of acromegaly [Time Frame: From Week 10 to Week 13]. Total score computed by adding each of the individual acromegaly symptom intensities (headache pain, joint pain, sweating, fatigue, weakness in legs, swelling, numbness or tingling).
(§3) The primary hypothesis was that the group would show no change in the median IGF-1 at Week 13 versus baseline.

[3] = test system: growth hormone (GH) levels; experiment: Phase 2 acromegaly trials (ACROBAT Edge / Evolve): GH level; assay type: in vivo, human
Protocol: as §1, §2, §3

[4] = Tolerability in studies on subjects with acromegaly; assay type: in vivo, human; settings: 40 mg
carcinoid syndrome = settings: cited from earlier work
[5] = after 13 weeks of treatment, acromegaly patients previously treated with injected SRL depots

reduction of exposures (Cmax and AUC) ([1]; when administered with PPI, 60 mg): ~40%
reduction of exposures (Cmax and AUC) ([1]; when administered with high-fat meal): > 80%
reduction of exposures (Cmax and AUC) ([1]; when administered with low-fat meal, 60 mg): ~60%
SMILES: N#Cc1cccc(-c2ccc3ncc(-c4cc(F)cc(F)c4)c(N4CCC(N)CC4)c3c2)c1O [Compound A, 3-(4-(4-amino-piperidin-1-yl)-3-(3,5-difluoro-phenyl)-quinolin-6-yl)-2-hydroxy-benzonitrile]
IGF-1 levels vs baseline [2, 5]: did not significantly change from baseline
IGF-1 after withdrawal ([2]; within 2 weeks after withdrawal): Rise in IGF-1 after withdrawal
GH levels vs baseline [3, 5]: did not significantly change from baseline
GH after withdrawal ([3]; after withdrawal): Rise in GH after withdrawal

SMILES: Cl.N#Cc1cccc(-c2ccc3ncc(-c4cc(F)cc(F)c4)c(N4CCC(N)CC4)c3c2)c1O [Compound A-HCl, 3-[4-(4-amino-piperidin-1-yl)-3-(3,5-difluoro-phenyl)-quinolin-6-yl]-2-hydroxy-benzonitrile monohydrochloride]
steady state IGF-1 change vs baseline (last LA-SRL injection) ([2]; 10 and 20 mg per day, acromegaly patients previously treated with LA-SRLs): above baseline
steady state IGF-1 change from baseline (last LA-SRL injection) ([2]; 30/day and 40 mg/day, acromegaly patients previously treated with LA-SRLs): near zero
tolerability [4]: well tolerated

SMILES: C[C@@H](O)[C@@H]1NC(=O)[C@H](CCCCN)NC(=O)[C@@H](Cc2c[nH]c3ccccc23)NC(=O)[C@H](Cc2ccccc2)NC(=O)[C@@H](NC(=O)[C@H](N)Cc2ccccc2)CSSC[C@@H](C(=O)N[C@H](CO)[C@@H](C)O)NC1=O [octreotide]
patients with carcinoid syndrome who respond (carcinoid syndrome): 80%
